SMILES strings stand for the structures. Bounds are passed on as bounds.

Data set [1] relates to Peripheral blood mononuclear cells (PBMC). Type of data set: cell-based. The conditions noted are these: human, 7 days. On the procedure:
Peripheral blood mononuclear cells (PBMC) obtained from healthy donors by separation over Ficoll-Hypaque (GEHealthear-Cat.# GEH17-1440-02) were suspended at 2x10^6 cells/mL in RPMI 1640 (Biowest-Cat.#L0501-500) supplemented with 10% of heat-inactivated sterile fetal bovine serum (Gibco-Cat.#10270-106), 2 mmol/l L-glutamine (Biowest-Cat.#X0550-100), 50 U/mL Penicillin-50 µg/mL Streptomycin (Biowest-Cat.#L0022-100), referred to as complete medium (CM). PBMC were supplemented with 5 µg/mL of phytohaemagglutinin (Sigma Aldr-Cat.#L1668) and cultured in 75 cm^2 flasks (Sarsted-Cat.#833.911.002) for 2 days at 37 °C in a humidified atmosphere with 5% CO2.
PBMC were then washed in CM, counted by trypan blue exclusion (Gibco-Cat. #15250-061), centrifuged and suspended in fresh CM supplemented with 20 IU/mL recombinant human IL-2 (Miltenyi Biotec-Cat.#130-097-748) and seeded in a 96-well-tissue culture plate (Sarsted-Ca#831.837) at the density of 5x10^5 cells/mL (or 1x10^5 cells in 200 µL final CM volume per well). Cells were left untreated (negative control) or treated with different concentrations of the compounds.
After 7 days of incubation cytotoxicity was determined using Promega's CellTiter 96(R) AQueous One Solution Cell Proliferation Assay (MTS assay) (Promega-Cat.#G3581) according to the manufacturer's instuctions. This is a colorimetric method for determining the number of viable cells in proliferation or cytotoxicity assays. The MTS tetrazolium compound is bioreduced by cells into a colored formazan product that is soluble in tissue culture medium. This conversion is presumably accomplished by NADPH or NADH produced by dehydrogenase enzymes in metabolically active cells.
Briefly, MTS solution was thawed at room temperature, or in a water bath at 37 °C and 40 µL of MTS solution was pipeted into each well of the 96-well assay plate containing the samples in 200 µL of culture medium and incubated at 37 °C, 5% CO2 for 4 hours. The optical density was read at 490 nm using a 96-well plate reader (Tecan Infinite F50) and TD50 (toxic dose 50%, dose killing 50% of the cells compared to untreated control) value was calculated by interpolation of the curve obtained by plotting dose against percent mortality and by using "Magellan data analysis software". CM alone plus MTS solution was used as a blank, and cell culture well without compound was used as a cellular control.

In data set [2] the test system is HeLa cells. Description: HeLa Proliferation assay (CellTiter Glo). The data set is classed as cell-based. The conditions noted are these: 72 hours. How it is done:
HeLa cells (ATCC® CCL2™) in DMEM (Dulbecco Modified Eagle's Medium) without phenol red, Thermo, 11880, USA + 10% FBS + 1X PenStrep + 1X Gln or HUVEC cells (ATCC® CRL1730™) in EBM-2 (Endothelial Growth Basal Medium, Lonza, CC3156) + EGM-2 SingleQuotsTMSupplements and Growth Factors (Lonza, CC4176) + 1X Penicyllin-Streptomycin (PenStrep, ThermoFisher) + 1X Glutamine, are plated in a 384 well plate (Thermo, 4334-11, USA) to a density of 2000 cells per well and let recover for four hours at 37 °C, 5% CO2 in a humidified atmosphere. After the recovery, compounds are transferred to assay plates as per compound preparation method. Assay plates are then incubated at 37 °C, 5% CO2 in a humidified atmosphere for 72 hours. Cell viability is measured by the CellTiter Glo (Promega, G8080, USA) as per manufacturer instruction.

Take `CC1CCCC(NC(=O)c2nc(-c3ccccn3)nc(O)c2O)C1` (centres unmarked) [Compound 57, 5,6-dihydroxy-N-(3-methylcyclohexyl)-2-(pyridin-2-yl)pyrimidine-4-carboxamide]: the “Proliferation assay PBMC TD50” value in data set [1] was 2700 nM. Moreover, the “Proliferation assay HELA TD50” value in data set [2] was 1.9094 µM. As to `COc1ccc2nc(-c3nc(O)c(O)c(C(=O)N[C@H](C)C4CCCCC4)n3)ccc2c1` [Compound 66, (R)-N-(1-cyclohexylethyl)-5,6-dihydroxy-2-(6-methoxyquinolin-2-yl)pyrimidine-4-carboxamide], the “Proliferation assay PBMC TD50” value in data set [1] is reported as 6600 nM. For the same compound, in data set [2], the “Proliferation assay HELA TD50” value stood at 3.66 µM.

In the case of `Cc1ccc(-c2nc(O)c(O)c(C(=O)N[C@H](C)C3CCCCC3)n2)nc1C` [Compound 67, (R)-N-(1-cyclohexylethyl)-2-(,5,6-dimethylpyridin-2-yl)-5,6-dihydroxypyrimidine-4-carboxamide], the “Proliferation assay PBMC TD50” value in data set [1] was determined as 6700 nM. The “Proliferation assay HELA TD50” value in data set [2] was found to be 3.7577 µM. As to `C[C@@H](NC(=O)c1nc(-c2nc3ccccc3[nH]2)nc(O)c1O)C1CCCCC1` [Compound 29, (R)-2-(1H-benzo[d]imidazol-2-yl)-N-(1-cyclohexylethyl)-5,6-dihydroxypyrimidine-4-carboxamide], the “Proliferation assay PBMC TD50” value in data set [1] is on record as 1700 nM. In addition, in data set [2], the “Proliferation assay HELA TD50” value amounted to 3.3965 µM.

In the case of `C[C@@H](NC(=O)c1nc(-c2cccc(C(=O)OCc3ccccc3)n2)nc(O)c1O)C1CCCCC1` [Compound 54, benzyl (R)-6-(4-((1-cyclohexylethyl)carbamoyl)-5,6-dihydroxypyrimidin-2-yl)picolinate], the “Proliferation assay PBMC TD50” value in data set [1] came out at 25000 nM. Further, the “Proliferation assay HELA TD50” value in data set [2] was 24.972 µM.

Take `Cc1ccc(-c2nc(O)c(O)c(C(=O)N[C@H](C)C3CCCCC3)n2)nc1` [Compound 41, (R)-N-(1-cyclohexylethyl)-5,6-dihydroxy-2-(5-methylpyridin-2-yl)pyrimidine-4-carboxamide]: in data set [1], the “Proliferation assay PBMC TD50” value was 2800 nM. Also, in data set [2], the “Proliferation assay HELA TD50” value is 2.013 µM. The like results for `O=C(NCCC1CCCC1)c1nc(-c2ccccn2)nc(O)c1O` [Compound 43, N-(2-cyclopentylethyl)-5,6-dihydroxy-2-(pyridin-2-yl)pyrimidine-4-carboxamide] were, in that order, 8090 nM and 2.1901 µM. As to `O=C(OC1CCCCC1)c1nc(-c2ccccn2)nc(O)c1O` [Compound 13, cyclohexyl 5,6-dihydroxy-2-(pyridin-2-yl)pyrimidine-4-carboxylate], the “Proliferation assay PBMC TD50” value in data set [1] is given as 16300 nM. For the same compound, the “Proliferation assay HELA TD50” value in data set [2] is above 50 µM. The like results for `C[C@@H](NC(=O)c1nc(-c2ccc(C(=O)NCc3ccccc3)cn2)nc(O)c1O)C1CCCCC1` [Compound 50, (R)-2-(5-(benzylcarbamoyl)pyridin-2-yl)-N(1-cyclohexylethyl)-5,6-dihydroxypyrimidine-4-carboxamide] were, in that order, 2200 nM and 2.2912 µM. Take `C[C@H](NC(=O)c1nc(-c2cc(C(F)(F)F)ccn2)nc(O)c1O)C1CCCCC1` [Compound 52, (S)-N-(1-cyclohexylethyl)-5,6-dihydroxy-2-(4-(trifluoromethyl)pyridin-2-yl)pyrimidine-4-carboxamide]: the “Proliferation assay PBMC TD50” value in data set [1] is reported as 1200 nM. Further, the “Proliferation assay HELA TD50” value in data set [2] is 10.186 µM. The like results for `C[C@@H](NC(=O)c1nc(-c2cc(C(=O)OCc3ccccc3)ccn2)nc(O)c1O)C1CCCCC1` [Compound 46, benzyl (R)-2-(4-((1-cyclohexylethyl)carbamoyl)-5,6-dihydroxypyrimidin-2-yl)isonicotinate] were, in that order, 1000 nM and 6.4784 µM. In the case of `Cc1nnc(C(=O)NC(C)(C)c2nc(C(=O)NCc3ccc(F)cc3)c(O)c(=O)n2C)o1` [Raltegravir™, Raltegravir, reference compound], the “TD50” value in data set [1] is above 50 µM.

Source of the values: patent EP3290412A1, “HIV-1 NUCLEOCAPSID INHIBITORS” (Università degli Studi di Siena, priority 2016, dated 2018).
